Experimental data published in patent US8796324B2, “Substituted 2-acetamido-5-aryl-1,2,4-triazolones and use thereof” (Bayer Intellectual Property GmbH, priority 2009, dated 2014).
Counter-ions that a name gives are not always drawn.

Tests used:
human V1a receptor = target: T1, human V1a receptor (Homo sapiens, UniProt P37288); assay: Cellular in vitro assay for determining the vasopressin receptor activity (aequorin luminescence); type: cell-based; details: CHO cell line transfected with the human V1a receptor; agonist [Arg8]-vasopressin; read-out: IC50 hV1a
T1 construct: expressed in transfected cells; host or cells: CHO K1 (constitutively expressing modified aequorin)
T1 sequence (P37288 whole entry): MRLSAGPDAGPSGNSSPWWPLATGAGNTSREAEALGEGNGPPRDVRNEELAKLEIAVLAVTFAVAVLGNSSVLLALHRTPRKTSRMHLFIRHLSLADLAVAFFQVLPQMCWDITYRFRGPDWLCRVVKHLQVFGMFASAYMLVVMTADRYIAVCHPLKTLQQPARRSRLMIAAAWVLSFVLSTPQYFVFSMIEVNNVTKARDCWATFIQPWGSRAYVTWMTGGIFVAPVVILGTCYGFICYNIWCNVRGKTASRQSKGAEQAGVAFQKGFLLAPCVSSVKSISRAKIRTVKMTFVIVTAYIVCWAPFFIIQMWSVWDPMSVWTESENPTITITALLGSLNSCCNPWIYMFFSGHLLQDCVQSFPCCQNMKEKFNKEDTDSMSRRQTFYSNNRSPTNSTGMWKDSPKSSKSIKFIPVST
Excerpt: (§1) B-1. Cellular In Vitro Assay for Determining the Vasopressin Receptor Activity
(§2) The identification of agonists and antagonists of the V1a and V2 vasopressin receptors from humans and rats and also the quantification of the activity of the substances described here took place using recombinant cell lines. These cells derive originally from a hamster ovary epithelial cell (Chinese Hamster Ovary, CHO K1, ATCC: American Type Culture Collection, Manassas, Va. 20108, USA). The test cell lines constitutively express a modified form of the calcium-sensitive photoprotein aequorin, which, after reconstitution with the cofactor coelenterazine, emits light when there are increases in the free calcium concentration (Rizzuto R., Simpson A. W., Brini M., Pozzan T.; Nature 358 (1992) 325-327). In addition, the cells are stably transfected with the human or rat V1a or V2 receptors. In the case of the Gs-coupling V2 receptors, the cells are stably transfected with a further gene, which codes for the promiscuous Gα16 protein (Amatruda T. T., Steele D. A., Slepak V. Z., Simon M. I., Proc. Nat. Acad. Sci. USA 88 (1991), 5587-5591), either independently or as a fusion gene. The resulting vasopressin receptor test cells react to stimulation of the recombinantly expressed vasopressin receptors by intracellular release of calcium ions, which can be quantified by the resulting aequorin luminescence using a suitable luminometer (Milligan G., Marshall F., Rees S., Trends in Pharmaco. Sci. 17 (1996) 235-237).
(§3) On the day before the assay, the cells are plated out in culture medium (DMEM, 10% FCS, 2 mM glutamine, 10 mM HEPES) in 384-well microtiter plates and kept in a cell incubator (96% humidity, 5% v/v carbon dioxide, 37° C.). On the day of the assay, the culture medium is replaced by a Tyrode solution (140 mM sodium chloride, 5 mM potassium chloride, 1 mM magnesium chloride, 2 mM calcium chloride, 20 mM glucose, 20 mM HEPES), which additionally contains the cofactor coelenterazine (50 μM), and the microtiter plate is then incubated for a further 3-4 hours. The test substances in various concentrations are placed for 10 to 20 minutes in the wells of the microtiter plate before the agonist [Arg8]-vasopressin is added, and the resulting light signal is measured immediately in the luminometer. The IC50 values are calculated using the GraphPad PRISM computer program (Version 3.02).
(§4) The table below lists representative IC50 values for the compounds of the invention on the cell line transfected with the human V1a or V2 receptor: […]

human V2 receptor = target: T2, human V2 receptor (Homo sapiens, UniProt P30518); assay: as above; type: cell-based; details: CHO cell line transfected with the human V2 receptor (and Gα16); agonist [Arg8]-vasopressin; read-out: IC50 hV2
T2 construct: expressed in transfected cells; host or cells: CHO K1 (constitutively expressing modified aequorin; co-transfected with promiscuous G-alpha-16)
T2 sequence (P30518 whole entry): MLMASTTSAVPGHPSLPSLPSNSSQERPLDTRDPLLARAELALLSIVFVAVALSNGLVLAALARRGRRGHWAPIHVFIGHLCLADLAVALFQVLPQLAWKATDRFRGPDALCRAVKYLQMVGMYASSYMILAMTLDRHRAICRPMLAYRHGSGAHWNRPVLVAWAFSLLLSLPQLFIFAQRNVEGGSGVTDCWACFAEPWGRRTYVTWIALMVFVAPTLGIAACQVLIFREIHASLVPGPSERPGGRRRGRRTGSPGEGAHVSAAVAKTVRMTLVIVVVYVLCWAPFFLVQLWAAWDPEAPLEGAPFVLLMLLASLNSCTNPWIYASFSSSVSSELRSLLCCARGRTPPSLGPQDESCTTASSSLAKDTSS
Excerpt: as §1, §2, §3, §4

SMILES | IC50 (human V1a receptor) [nM] | IC50 (human V2 receptor) [nM]
COc1ccccc1C(CCOC(N)=O)NC(=O)Cn1nc(-c2ccc(Cl)cc2)n(C[C@H](O)C(F)(F)F)c1=O (stereo partly drawn) [Example 188, 3-[({3-(4-Chlorophenyl)-5-oxo-4-[(2S)-3,3,3-trifluoro-2-hydroxypropyl]-4,5-dihydro-1H-1,2,4-triazol-1-yl}acetyl)amino]-3-(2-methoxyphenyl)propyl carbamate] | 8.2 | 9.9
NC(=O)NCC(NC(=O)Cn1nc(-c2ccc(Cl)cc2)n(C[C@H](O)C(F)(F)F)c1=O)c1cccc(Cl)c1Cl (single isomer, unassigned) [Example 62] | 3.6 | 1
N#Cc1cccc([C@H](CO)NC(=O)Cn2nc(-c3ccc(Cl)cc3)n(C[C@H](O)C(F)(F)F)c2=O)c1 [Example 75, 2-{3-(4-Chlorophenyl)-5-oxo-4-[(2S)-3,3,3-trifluoro-2-hydroxypropyl]-4,5-dihydro-1H-1,2,4-triazol-1-yl}-N-[(1R)-1-(3-cyanophenyl)-2-hydroxyethyl]acetamide] | 513 | 59.2
Cc1cccc([C@H](CO)NC(=O)Cn2nc(-c3ccc(Cl)cc3)n(C[C@H](O)C(F)(F)F)c2=O)c1C [Example 74, 2-{3-(4-Chlorophenyl)-5-oxo-4-[(2S)-3,3,3-trifluoro-2-hydroxypropyl]-4,5-dihydro-1H-1,2,4-triazol-1-yl}-N-[(1R)-1-(2,3-dimethylphenyl)-2-hydroxyethyl]acetamide] | 21.6 | 2.4
O=C(Cn1nc(-c2ccc(Cl)cc2)n(C[C@H](O)C(F)(F)F)c1=O)NC(c1cccc(C(F)(F)F)c1)C(O)C(F)(F)F (mixture of isomers) [Example 78, 2-{3-(4-Chlorophenyl)-5-oxo-4-[(2S)-3,3,3-trifluoro-2-hydroxypropyl]-4,5-dihydro-1H-1,2,4-triazol-1-yl}-N-{3,3,3-trifluoro-2-hydroxy-1-[3-(trifluoromethyl)phenyl]propyl}acetamide] | 21.1 | 30.4
O=C(Cn1nc(-c2ccc(Cl)cc2)n(C[C@H](O)C(F)(F)F)c1=O)NC(CO)c1cccc(F)c1F (stereo partly drawn) [Example 95, 2-{3-(4-Chlorophenyl)-5-oxo-4-[(2S)-3,3,3-trifluoro-2-hydroxypropyl]-4,5-dihydro-1H-1,2,4-triazol-1-yl}-N-[1-(2,3-difluorophenyl)-2-hydroxyethyl]acetamide] | 57.3 | 19.2
NC(=O)OCCC(NC(=O)Cn1nc(-c2ccc(Cl)cc2)n(C[C@H](O)C(F)(F)F)c1=O)c1cccc(Cl)c1Cl (single isomer, unassigned) [Example 73] | 10.8 | 1.6
O=C(Cn1nc(-c2ccc(Cl)cc2)n(C[C@H](O)C(F)(F)F)c1=O)NC(CC(F)(F)F)c1ccccc1 (stereo partly drawn) [Example 90, 2-{3-(4-Chlorophenyl)-5-oxo-4-[(2S)-3,3,3-trifluoro-2-hydroxypropyl]-4,5-dihydro-1H-1,2,4-triazol-1-yl}-N-(3,3,3-trifluoro-1-phenylpropyl)acetamide] | 88.6 | 231
O=C(Cn1nc(-c2ccc(Cl)s2)n(Cc2ccccc2F)c1=O)NC(CO)c1cccc(F)c1F (centres unmarked) [Example 185] | 55 | 45
C=CCn1c(-c2ccc(Cl)cc2)nn(CC(=O)NC(CO)c2cccc(Cl)c2F)c1=O (centres unmarked) [Example 168] | 87 | 76
O=C(Cn1nc(-c2ccc(Cl)cc2)n(C2CC2)c1=O)NC(CO)c1cccc(C(F)(F)F)c1 (racemic) [Example 96, 2-[3-(4-Chlorophenyl)-4-cyclopropyl-5-oxo-4,5-dihydro-1H-1,2,4-triazol-1-yl]-N-{2-hydroxy-1-[3-(trifluoromethyl)phenyl]ethyl}acetamide] | 71.3 | 40.2
Cc1ccccc1C(CCO)NC(=O)Cn1nc(-c2ccc(Cl)cc2)n(C[C@H](O)C(F)(F)F)c1=O (single isomer, unassigned) [Example 87] | 3.8 | 5.8
O=C(Cn1nc(-c2ccc(Cl)cc2)n(CC2CCCCC2)c1=O)NC(CO)c1cccc(Cl)c1F (centres unmarked) [Example 182] | 304 | 28
CN(C)S(=O)(=O)CC(NC(=O)Cn1nc(-c2ccc(Cl)cc2)n(C[C@H](O)C(F)(F)F)c1=O)c1cccc(C(F)(F)F)c1 (single isomer, unassigned) [Example 141] | 36 | 4.8
NCC(NC(=O)Cn1nc(-c2ccc(Cl)cc2)n(C[C@H](O)C(F)(F)F)c1=O)c1cccc(C(F)(F)F)c1 (mixture of isomers) [Example 10, N-{2-Amino-1-[3-(trifluoromethyl)phenyl]ethyl}-2-{3-(4-chlorophenyl)-5-oxo-4-[(2S)-3,3,3-trifluoro-2-hydroxypropyl]-4,5-dihydro-1H-1,2,4-triazol-1-yl}acetamide hydrochloride (diastereomer mixture)] | 10.4 | 6.3
COC(=O)NCC(NC(=O)Cn1nc(-c2ccc(Cl)cc2)n(CCC(F)(F)F)c1=O)c1cccc(Cl)c1Cl (single isomer, unassigned) [Example 115, Methyl [2-({[3-(4-chlorophenyl)-5-oxo-4-(3,3,3-trifluoropropyl)-4,5-dihydro-1H-1,2,4-triazol-1-yl]acetyl}amino)-2-(2,3-dichlorophenyl)ethyl]carbamate] | 3.5 | 7.6
CS(=O)(=O)NCC(NC(=O)Cn1nc(-c2ccc(Cl)cc2)n(C[C@H](O)C(F)(F)F)c1=O)c1cccc(C(F)(F)F)c1 (single isomer, unassigned; diastereomer ii) [Example 24] | 4.5 | 1.3

Molecules with a lower IC50 (human V1a receptor), results first:

IC50 (human V1a receptor) [nM] | IC50 (human V2 receptor) [nM] | SMILES
3 | 1.5 | CCS(=O)(=O)NCC(NC(=O)Cn1nc(-c2ccc(Cl)cc2)n(C[C@H](O)C(F)(F)F)c1=O)c1cccc(Cl)c1Cl (single isomer, unassigned; diastereomer ii) [Example 34]
0.9 | 1.4 | NC(=O)NCC(NC(=O)Cn1nc(-c2ccc(Cl)cc2)n(CCC(F)(F)F)c1=O)c1cccc(Cl)c1Cl (single isomer, unassigned) [Example 121, N-[2-(Carbamoylamino)-1-(2,3-dichlorophenyl)ethyl]-2-[3-(4-chlorophenyl)-5-oxo-4-(3,3,3-trifluoropropyl)-4,5-dihydro-1H-1,2,4-triazol-1-yl]acetamide]
1 | 8.5 | NC(=O)OCC(NC(=O)Cn1nc(-c2ccc(Cl)cc2)n(C[C@H](O)C(F)(F)F)c1=O)c1ccccc1C(F)(F)F (single isomer, unassigned) [Example 51]
2 | 15 | O=C(Cn1nc(-c2ccc(Cl)cc2)n(C[C@H](O)C(F)(F)F)c1=O)NC(CN1CCOC1=O)c1cccc(C(F)(F)F)c1 (single isomer, unassigned) [Example 149]
1.4 | 13.9 | NC(=O)OCC(NC(=O)Cn1nc(-c2ccc(Cl)cc2)n(CCC(F)(F)F)c1=O)c1ccccc1C(F)(F)F (single isomer, unassigned) [Example 144, 2-({[3-(4-Chlorophenyl)-5-oxo-4-(3,3,3-trifluoropropyl)-4,5-dihydro-1H-1,2,4-triazol-1-yl]acetyl}amino)-2-[2-(trifluoromethyl)phenyl]ethyl carbamate]
1.8 | 1.8 | CS(=O)(=O)NCC(NC(=O)Cn1nc(-c2ccc(Cl)cc2)n(C[C@H](O)C(F)(F)F)c1=O)c1ccccc1Cl (single isomer, unassigned) [Example 126]
1.6 | 9.9 | NC(=O)OCC[C@H](NC(=O)Cn1nc(-c2ccc(Cl)cc2)n(C[C@H](O)C(F)(F)F)c1=O)c1ccccc1C(F)(F)F [Example 70, (3S)-3-[({3-(4-Chlorophenyl)-5-oxo-4-[(2S)-3,3,3-trifluoro-2-hydroxypropyl]-4,5-dihydro-1H-1,2,4-triazol-1-yl}acetyl)amino]-3-[2-(trifluoromethyl)phenyl]propyl carbamate]
1 | 8.9 | NCC(NC(=O)Cn1nc(-c2ccc(Cl)cc2)n(C[C@H](O)C(F)(F)F)c1=O)c1ccccc1C(F)(F)F (single isomer, unassigned; diastereomer ii) [Example 14]
